Test results as given in ChEMBL document CHEMBL6103618, “Discovery of Novel Oxazolo[4,3-f]purine Derivatives as Antitumor Agents through PPIA Interaction” (J Med Chem, 2025).
The source made the active and inactive calls. No cut-off for these calls is given here.

Legend:
HCT-116 [1] = assay: Induction of intracellular ROS generation in human HCT-116 cells harboring siNC at 1.2 uM by flow cytometry (reference value: 8.22 %); type: functional
HCT-116 [2] = assay: Induction of DNA damage in human HCT-116 cells assessed as increase in gamma-H2AX level at 0.3 to 1.2 uM incubated for 48 hrs by Western blot analysis; type: functional, cell-based; conditions: dose 0.3-1.2 µM
HCT-116 [3] = assay: Induction of apoptosis in human HCT-116 cells assessed as decrease in Bcl-2 level at 1.2 uM in presence of NAC by Western blot analysis; type: functional, cell-based
HCT-116 [4] = assay: Induction of cell cycle arrest in human HCT-116 cells assessed as accumulation at G1 phase at 1.2 uM incubated for 48 hrs by PI staining based flow cytometry (reference value: 59.37 %); type: functional
HCT-116 [5] = assay: Induction of apoptosis in human HCT-116 cells assessed as necrotic cells at 1.2 uM incubated for 48 hrs by Annexin V-FITC/PI staining based flow cytometry (reference value: 1.15 %); type: functional
HCT-116 [6] = assay: Inhibition of colony formation in human HCT-116 cells at 1.2 uM in presence of NAC by crystal violet staining based analysis; type: functional, cell-based
HCT-116 [7] = assay: Induction of cell cycle arrest in human HCT-116 cells assessed as accumulation at G2 phase at 1.2 uM incubated for 48 hrs by PI staining based flow cytometry (reference value: 6.08 %); type: functional
HCT-116 [8] = assay: Effect on TK1 expression in human HCT-116 cells upto 6 uM incubated for 30 mins followed by pronase addition measured after 30 mins by DARTS assay; type: functional, cell-based
PANC-1 = assay: Antiproliferative activity against human PANC-1 cells assessed as inhibition of cell viability incubated for 48 hrs by CCK8 assay; type: functional, cell-based; conditions: PANC-1, 48 h
HCT-116 [9] = assay: Induction of apoptosis in human HCT-116 cells assessed as early apoptotic cells at 0.3 uM incubated for 48 hrs by Annexin V-FITC/PI staining based flow cytometry (reference value: 1.12 %); type: functional
HCT-116 [10] = assay: Anti-proliferative activity against human HCT-116 cells harboring siPPIA-3 assessed as decrease in p-JNK level at 1.2 uM by Western blot analysis; type: functional, cell-based
HCT-116 [11] = assay: Induction of apoptosis in human HCT-116 cells harboring siPPIA-3 assessed as late apoptotic cells at 1.2 uM by Annexin V-FITC/PI staining based flow cytometry (reference value: 3.44 %); type: functional
HCT-116 [12] = assay: Anti-migration activity in human HCT-116 cells harboring siNC at 1.2 uM incubated for 24 hrs by wound healing assay; type: functional, cell-based
HCT-116 [13] = assay: Induction of apoptosis in human HCT-116 cells harboring siPPIA-3 assessed as early apoptotic cells at 1.2 uM by Annexin V-FITC/PI staining based flow cytometry (reference value: 7.82 %); type: functional
HCT-116 [14] = assay: Induction of apoptosis in human HCT-116 cells assessed as late apoptotic cells at 0.3 uM incubated for 48 hrs by Annexin V-FITC/PI staining based flow cytometry (reference value: 1.55 %); type: functional
HCT-116 [15] = assay: Effect on VCP expression in human HCT-116 cells upto 6 uM incubated for 30 mins followed by pronase addition measured after 30 mins by DARTS assay; type: functional, cell-based
[16] = Toxicity in BALB/c mouse implanted with mouse CT26 cells assessed as injury in heart at 15 to 45 mg/kg, ip qd treated for 14 days by H and E staining based analysis; type: organism-based; conditions: in vivo, 336 h, dose 15-45 mg/kg, time 14 day
HCT-116 [17] = assay: Induction of cell cycle arrest in human HCT-116 cells assessed as accumulation at G1 phase at 0.6 uM incubated for 48 hrs by PI staining based flow cytometry (reference value: 59.37 %); type: functional
[18] = biological target: T1, Peptidyl-prolyl cis-trans isomerase A (Homo sapiens, UniProt P62937); assay: Binding affinity to PPIA (unknown origin) at 2 uM preincubated for 30 mins followed by Proteinase K addition measured after 10 mins by LiP-SMap analysis
HCT-116 [19] = assay: Induction of apoptosis in human HCT-116 cells harboring siPPIA-3 assessed as viable cells at 1.2 uM by Annexin V-FITC/PI staining based flow cytometry (reference value: 87.9 %); type: functional; conditions: read-out: Activity
HCT-116 [20] = assay: Induction of ER stress in human HCT-116 cells assessed as increase in PERK level at 0.3 to 1.2 uM by Western blot analysis; type: functional, cell-based; conditions: dose 0.3-1.2 µM
HCT-116 [21] = assay: Effect on COTL1 expression in human HCT-116 cells upto 6 uM incubated for 30 mins followed by pronase addition measured after 30 mins by DARTS assay; type: functional, cell-based
HCT-116 [22] = assay: Induction of mitochondrial dysfunction in human HCT-116 cells at 0.3 to 1.2 uM incubated for 48 hrs by Mito-Tracker Green probe based analysis; type: functional, cell-based; conditions: dose 0.3-1.2 µM
HCT-116 [23] = assay: Antiproliferative activity against human HCT-116 cells at 0.3 to 1.2 uM incubated for 48 hrs by EdU uptake assay; type: functional, cell-based; conditions: dose 0.3-1.2 µM
HCT-116 [24] = assay: Induction of cell cycle arrest in human HCT-116 cells assessed as decrease in CDK4 level incubated for 48 hrs by Western blot analysis; type: functional, cell-based; conditions: dose 0.3-1.2 µM
[25] = Acute toxicity in BALB/c mouse assessed as death rate at 250 mg/kg, ip measured for 14 days; type: organism-based; conditions: both, in vivo, time 14 day, read-out: Activity
HCT-116 [26] = assay: Effect on SRSF7 expression in human HCT-116 cells upto 6 uM incubated for 30 mins followed by pronase addition measured after 30 mins by DARTS assay; type: functional, cell-based
[27] = biological target: T1, Peptidyl-prolyl cis-trans isomerase A; assay: Binding affinity to PPIA in human HCT-116 cells assessed as protein stability incubated for 30 mins followed by pronase addition measured after 30 mins by DARTS assay; type: cell-based; conditions: dose <= 6.0 µM, time 60.0 min
HCT-116 [28] = assay: Induction of apoptosis in human HCT-116 cells assessed as late apoptotic cells at 0.6 uM incubated for 48 hrs by Annexin V-FITC/PI staining based flow cytometry (reference value: 1.55 %); type: functional
[29] = Toxicity in BALB/c mouse implanted with mouse CT26 cells assessed as injury in spleen at 15 to 45 mg/kg, ip qd treated for 14 days by H and E staining based analysis; type: organism-based; conditions: in vivo, 336 h, dose 15-45 mg/kg, time 14 day
HCT-116 [30] = assay: Induction of DNA damage in human HCT-116 cells assessed as increase in orange fluorescence incubated for 48 hrs by AO staining based analysis; type: functional, cell-based; conditions: dose 0.3-1.2 µM
[31] = Toxicity in BALB/c mouse implanted with mouse CT26 cells assessed as abnormality in kidney at 15 to 45 mg/kg, ip qd treated for 14 days by H and E staining based analysis; type: organism-based; conditions: in vivo, 336 h, dose 15-45 mg/kg, time 14 day
HCT-116 [32] = assay: Induction of apoptosis in human HCT-116 cells assessed as early apoptotic cells at 1.2 uM incubated for 48 hrs by Annexin V-FITC/PI staining based flow cytometry (reference value: 1.12 %); type: functional
CT26 = assay: Antitumor activity against mouse CT26 cells implanted in BALB/c mouse assessed as reduction in tumor weight administered intraperitoneally once daily for 14 days; type: functional; conditions: dose 15-45 mg/kg, route ip, time 14.0 day
HCT-116 [33] = assay: Anti-proliferative activity against human HCT-116 cells harboring siNC assessed as decrease in p-JNK level at 1.2 uM by Western blot analysis; type: functional, cell-based

T1 sequence (P62937 whole entry, looked up): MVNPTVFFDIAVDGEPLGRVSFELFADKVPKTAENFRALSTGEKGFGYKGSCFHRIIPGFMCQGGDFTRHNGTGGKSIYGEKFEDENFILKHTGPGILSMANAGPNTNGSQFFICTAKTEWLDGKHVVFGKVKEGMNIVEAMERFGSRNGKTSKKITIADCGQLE

Q: Which results are given for `C=C(C(=O)OC)N1c2nc(Cl)nc(Cl)c2N2C(c3ccccc3F)OC(C(=O)OCC)(C(=O)OCC)C12` (racemic)?
A: Activity (HCT-116 [1]): 22.9%; Activity (HCT-116 [2]): Active; Activity (HCT-116 [3]): inactive; Activity (HCT-116 [4]): 69.07%; Activity (HCT-116 [5]): 2.4%; inhibition (HCT-116 [6]): inactive; Activity (HCT-116 [7]): 2.78%; Activity (HCT-116 [8]): No effect; IC50 (PANC-1): 3.31 µM; Activity (HCT-116 [9]): 11.7%; Activity (HCT-116 [10]): inactive; Activity (HCT-116 [11]): 3.25%; Activity (HCT-116 [12]): Active; Activity (HCT-116 [13]): 8.6%; Activity (HCT-116 [14]): 3.56%; Activity (HCT-116 [15]): No effect; Activity [16]: Non-toxic; Activity (HCT-116 [17]): 66.32%; Activity [18]: Active; viability at 1.2 µM (HCT-116 [19]): 87%; Activity (HCT-116 [20]): Active; Activity (HCT-116 [21]): No effect; Activity (HCT-116 [22]): Active; Activity (HCT-116 [23]): Active; Activity (HCT-116 [24]): Dose-dependent-effect; mortality at 336 h [25]: 10%; Activity (HCT-116 [26]): No effect; Activity [27]: Dose-dependent-effect; Activity (HCT-116 [28]): 5.53%; Activity [29]: Non-toxic; Activity (HCT-116 [30]): Dose-dependent-effect; Activity [31]: Non-toxic; Activity (HCT-116 [32]): 21.3%; Activity (CT26): Dose-dependent-effect; Activity (HCT-116 [33]): Active
